# Assay results: patent publication US5232633A, “Sulfoethyl carbonate wetting agents and their use in detergent compositions” (priority 1992, dated 1993)
# Like-named read-outs stand apart in the source and are kept apart here.
# Tests used:
# [1] = Critical micelle concentration by surface tension (Wilhemy plate method); assay type: physicochemical
# From the text: The CMC is defined as the concentration of a surfactant at which it begins to form micelles in solution rather than precipitate. Specifically, materials that contain both a hydrophobic group and a hydrophilic group, (such as surfactants), will tend to distort the structure of the solvent (i.e, water) they are in and, therefore, increase the free energy of the system. They therefore, concentrate at the surface, whereby orienting so that their hydrophobic groups are directed away from the solvent, the free energy of the solution is minimized. Another means of minimizing the free energy can be achieved by the aggregation of these surface-active molecules into clusters or micelles with their hydrophobic groups directed toward the interior of the cluster and their hydrophilic groups directed toward the solvent.
# The value of the CMC is determined by surface tension measurements using the Wilhemy plate method. While not wishing to be bound by theory, it is believed that a low CMC is a measure of surface activity (i.e, lower CMC of one surfactant versus another indicates the surfactant with lower CMC is more surface active). In this regard, it is believed that lower CMC signifies that lesser amounts of a surfactant are required to provide the same surfactancy benefits as a surfactant with higher CMC.
# [2] = Krafft point of 1% dispersion of surfactant in water; assay type: physicochemical; settings: for Krafft Pt.: 1% dispersion in water; for Krafft point (in words): compared with SLI
# Procedure: The temperature at and above which surfactants begin to form micelles instead of precipitates is referred to as Krafft point (Tk) and at this temperature the solubility of an ionic surfactant becomes equal to its CMC.
# Krafft point was measured by preparing a 1% dispersion of the surfactant in water. If the surfactant was soluble at room temperature, the solution was cooled to 0° C. […] If it precipitated out, the solution was slowly warmed with stirring in a water bath. The temperature at which the precipitate dissolved was determined to be the Krafft point.
# If the Krafft point was above room temperature, the solution was first heated rapidly to dissolve all the surfactant. It was then cooled until precipitation occurred, and was then slowly warmed to determine the Krafft point described above.
# [3] = Foam height, Ross-Miles method; assay type: physicochemical; settings: 45° C., water with 120 ppm calcium hardness; for Foam Ht., 10 min Ht.: after 10 minutes
# [4] = tested on: zein; design: species or system maize
# Procedure: Specifically, the lower the amount of zein protein dissolved, usually the milder a surfactant is. Conversely, the more zein dissolved, typically the more irritating the surfactant is. In order to test irritancy potential, a 1% solution of surfactant (30 mls) was added to 1.5 g zein and stirred at room temperature for 1 hr. Residual zein was collected and dried to constant weight. Differences between starting and residual weights were used to calculate % zein dissolved.
# [5] = Calcium ion sensitivity, modified Hart method; assay type: physicochemical; settings: for Ca + 2 Needed for Prec.: titration with calcium ion solution, visual cloudiness endpoint
# Procedure: The surfactant solution was titrated with a calcium ion solution. The endpoint was determined by visual observation of the cloudiness of the surfactant solution.
# [6] = Hydrolytic stability at pH 9, 40° C. by reverse phase HPLC; assay type: physicochemical; settings: 5×10^-4 M in NaHCO3 buffer with 5% CH3CN, 500 µM
# [7] = 1% solution of surfactant (30 mls), 1.5 g zein, room temperature, 1 hr
CMC [1],Krafft Pt. [2],"Foam Ht., 10 min Ht. [3]",Ca + 2 Needed for Prec. [5],"Hydrolytic Stability, t 1/2 [6]","Foam Ht., Initial Ht. [3]","% Zein Solub. [4, 7]",Compound,Krafft point (in words) [2],% Zein Solub. [4],Calcium sensitivity (in words) ([5]; compared with non-carbonated isethionate (SLI))
,,152 mm,,,158 mm,17%,"CCCCCCCCCCCCOCCOCCOCCOCCOC(=O)OCCS(=O)(=O)O [SED(4EO)C, Sodium 2-sulfoethyl dodecyl (4EO) carbonate]",,,
6.2 mM,24 °C,negligible,51 ppm,24 h,negligible,,"CCCCCCCCCCCC(=O)OCCS(=O)(=O)O [SLI, sodium lauroyl isethionate, reference compound]",,,
2.6 to 2.8 mM,30 °C,149 mm,2500 ppm,≈ 70 Days,156 mm,49%,"CCCCCCCCCCC(C)OC(=O)OC(C)CS(=O)(=O)O (stereo not shown) [SI2DC, Sodium 2-sulfoisopropyl 2-dodecyl carbonate]",higher,,
2.39 mM,15 °C,161 mm,2000 ppm,286 h,165 mm,51%,"CCCCCCCCCCCCOC(=O)OC(C)CS(=O)(=O)O (stereo not shown) [SIDC, Sodium 2-sulfoisopropyl dodecyl carbonate]",,,

# Second part, the compound before the results:
Compound,CMC [1],Krafft Pt. [2],"Foam Ht., 10 min Ht. [3]",Ca + 2 Needed for Prec. [5],"Hydrolytic Stability, t 1/2 [6]","Foam Ht., Initial Ht. [3]","% Zein Solub. [4, 7]",Krafft point (in words) [2],% Zein Solub. [4],Calcium sensitivity (in words) ([5]; compared with non-carbonated isethionate (SLI))
CCCCCCCCCCCCOC(=O)OCCS(=O)(=O)O.[Na],2.52 mM,24 °C,149 mm,150 ppm,55.2 h,,,same Krafft point as the SLI,49%,greater calcium insensitivity than the ester SLI
"CCCCCCCCCCC(C)OC(=O)OCCS(=O)(=O)O (stereo not shown) [SE2DC, Sodium 2-sulfoethyl 2-dodecylcarbonate]",3.7 to 4.0 mM,0 °C,160 mm,> 2700 ppm,223 h,162 mm,47%,,,
"CCCCCCCCCCCCOCCOCCOC(=O)OCCS(=O)(=O)O [SED(2EO)C, Sodium 2-sulfoethyl dodecyl (2EO) carbonate]",,,160 mm,,,165 mm,25%,,,
"CCCCCCCCCCCCOC(=O)OC(CC)CS(=O)(=O)O (stereo not shown) [S2DBC, Sodium 2-(1-sulfo)butyl dodecyl carbonate]",1.46 mM,0 °C,142 mm,725 ppm,1030 h,166 mm,41%,,,
